Earlier results on two compounds are cited in patent US20170258746A1, “ACETIC ACID/THYMOL COMPOSITIONS AND THEIR USE IN THE TREATMENT OF ONYCHOMYCOSIS” (Dr. Paul's Enterprises, LLC, priority 2008, published 2017).

The conditions of series [1]: oral, in children; American Family Physician vol. 63, no. 4, Feb. 15, 2001.
A further series relates to onychomycosis. Conditions: oral, Arch. Dermatol. 134(12) (December 1998).

Each structure is given as a SMILES string.

On to `COC1=CC(=O)C[C@@H](C)[C@]12Oc1c(Cl)c(OC)cc(OC)c1C2=O` [griseofulvin], for which the toxicity result in series [1] is recorded as “some level of toxicity”.
For `CN(C/C=C/C#CC(C)(C)C)Cc1cccc2ccccc12` [terbinafine], the “disease-free nail, % of patients” value in the series on onychomycosis was 35-50%.
